Assay results from ChEMBL document CHEMBL5528035, “Design, Synthesis, and Biological Evaluation for First GPX4 and CDK Dual Inhibitors” (J Med Chem, 2024).
Active and inactive are the calls of the source. The rule behind the calls is not given here.

Key:
[1] = target: CDK2/Cyclin A2 (Homo sapiens) (UniProt P24941+P20248); assay: Inhibition of CDK2/CyclinA2 (unknown origin) at 100 nM preincubated for 15 mins followed by substrate and ATP addition incubated for 10 mins by ADP-glo luminescent assay relative to control; format: protein-complex assay; conditions: time 25.0 min
[2] = Tmax in Sprague-Dawley rat at 10 mg/kg,iv administration measured upto 24 hrs by LC-MS/MS analysis; format: ADME, organism-based; conditions: in vivo
[3] = AUC (0 to t) in Sprague-Dawley rat at 10 mg/kg,iv administration measured upto 24 hrs by LC-MS/MS analysis; format: ADME, organism-based; conditions: in vivo
CDK4/Cyclin D3 = CDK4/Cyclin D3 (Homo sapiens, UniProt P11802); assay: Inhibition of CDK4/CyclinD3 (unknown origin) preincubated for 15 mins followed by substrate and ATP addition incubated for 10 mins by ADP-glo luminescent assay; format: protein-complex assay
CDK6/cyclin D3 = CDK6/cyclin D3 (Homo sapiens, UniProt Q00534); assay: Inhibition of CDK6/CyclinD3 (unknown origin) preincubated for 15 mins followed by substrate and ATP addition incubated for 10 mins by ADP-glo luminescent assay; format: protein-complex assay
MDA-MB-231 [4] = assay: Induction of ferroptosis in human MDA-MB-231 cells assessed as increase in intracellular lipid peroxide level incubated for 24 hrs by […] staining based confocal laser scanning microscopic analysis; format: functional, cell-based
MDA-MB-231 [5] = assay: Induction of ferroptosis in human MDA-MB-231 cells assessed as increase in intracellular ferrous ion level at 0.5 to 2 uM incubated for 24 hrs by ferroOrange probe based flow cytometric analysis; format: functional, cell-based; conditions: dose 0.5-2 µM
HCT-116 [6] = assay: Induction of ferroptosis in human HCT-116 cells assessed as increase in intracellular ferrous ion level at 0.5 to 2 uM incubated for 24 hrs by ferroOrange probe based flow cytometric analysis; format: functional, cell-based; conditions: dose 0.5-2 µM
HCT-116 [7] = assay: Induction of ferroptosis in human HCT-116 cells assessed as increase in intracellular ferrous ion level at 0.5 to 2 uM incubated for 24 hrs by ferroOrange probe based confocal laser scanning microscopic analysis; format: functional, cell-based; conditions: dose 0.5-2 µM
MDA-MB-231 [8] = assay: Induction of ferroptosis in human MDA-MB-231 cells assessed as downregulation of GPX4 expression incubated for 24 hrs by Western blotting analysis; format: functional, cell-based
MDA-MB-231 [9] = assay: Induction of cell cycle arrest in human MDA-MB-231 cells assessed as accumulation of cells at G1 phase at 0.5 to 2 uM incubated for 24 hrs by RNase/PI staining based flow cytometric analysis; format: functional; conditions: dose 0.5-2 µM
HCT-116 [10] = assay: Induction of cell cycle arrest in human HCT-116 cells assessed as accumulation of cells at G1 phase at 0.5 to 2 uM incubated for 24 hrs by RNase/PI staining based flow cytometric analysis; format: functional; conditions: dose 0.5-2 µM
HCT-116 [11] = assay: Induction of cell cycle arrest in human HCT-116 cells assessed as downregulation of phoshorylated Rb at 0.5 to 2 uM incubated for 24 hrs by Western blotting analysis; format: functional, cell-based; conditions: dose 0.5-2 µM
HCT-116 [12] = assay: Induction of cell cycle arrest in human HCT-116 cells assessed as downregulation of E2F1 expression at 0.5 to 2 uM incubated for 24 hrs by Western blotting analysis; format: functional, cell-based; conditions: dose 0.5-2 µM
HCT-116 [13] = assay: Induction of apoptosis in human HCT-116 cells incubated for 24 hrs by annexin-V-FITC/PI staining based flow cytometric analysis; format: functional, cell-based
MDA-MB-231 [14] = assay: Induction of apoptosis in human MDA-MB-231 cells assessed as downregulation of BCL-2 expression at 0.5 to 2 uM incubated for 24 hrs by Western blotting analysis; format: functional, cell-based; conditions: dose 0.5-2 µM
MDA-MB-231 [15] = assay: Induction of apoptosis in human MDA-MB-231 cells assessed as upregulation of Bax expression at 0.5 to 2 uM incubated for 24 hrs by Western blotting analysis; format: functional, cell-based; conditions: dose 0.5-2 µM
HCT-116 [16] = assay: Induction of apoptosis in human HCT-116 cells assessed as upregulation of Bax expression at 0.5 to 2 uM incubated for 24 hrs by Western blotting analysis; format: functional, cell-based; conditions: dose 0.5-2 µM
MDA-MB-231 [17] = assay: Antitumor activity against human MDA-MB-231 cells xenografted in BALB/c mouse assessed as tumor growth inhibition at 40 mg/kg,ip administrated for 21 consecutive days; format: functional; conditions: read-out: TGI
MDA-MB-231 [18] = assay: Antitumor activity against human MDA-MB-231 cells xenografted in BALB/c mouse assessed as tumor growth inhibition at 20 mg/kg,ip administrated for 21 consecutive days; format: functional; conditions: read-out: TGI
[19] = Toxicity in BALB/c mouse xenografted with human MDA-MB-231 cells assessed as change in body weight at 20 mg/kg,ip administrated for 21 consecutive days; format: organism-based; conditions: in vivo
[20] = Toxicity in BALB/c mouse xenografted with human MDA-MB-231 cells assessed as change in body weight at 40 mg/kg,ip administrated for 21 consecutive days; format: organism-based; conditions: in vivo
[21] = Toxicity in BALB/c mouse xenografted with human MDA-MB-231 cells assessed as morphological change in heart at 20 mg/kg,ip administrated for 21 consecutive days by hematoxylin and eosin staining based analysis; format: organism-based; conditions: in vivo
[22] = Toxicity in BALB/c mouse xenografted with human MDA-MB-231 cells assessed as morphological change in liver at 20 mg/kg,ip administrated for 21 consecutive days by hematoxylin and eosin staining based analysis; format: organism-based; conditions: in vivo
[23] = Toxicity in BALB/c mouse xenografted with human MDA-MB-231 cells assessed as morphological change in liver at 40 mg/kg,ip administrated for 21 consecutive days by hematoxylin and eosin staining based analysis; format: organism-based; conditions: in vivo
[24] = Toxicity in BALB/c mouse xenografted with human MDA-MB-231 cells assessed as morphological change in spleen at 40 mg/kg,ip administrated for 21 consecutive days by hematoxylin and eosin staining based analysis; format: organism-based; conditions: in vivo
[25] = Toxicity in BALB/c mouse xenografted with human MDA-MB-231 cells assessed as morphological change in lung at 20 mg/kg,ip administrated for 21 consecutive days by hematoxylin and eosin staining based analysis; format: organism-based; conditions: in vivo
[26] = Toxicity in BALB/c mouse xenografted with human MDA-MB-231 cells assessed as morphological change in lung at 40 mg/kg,ip administrated for 21 consecutive days by hematoxylin and eosin staining based analysis; format: organism-based; conditions: in vivo
MDA-MB-231 [27] = assay: Antitumor activity against human MDA-MB-231 cells xenografted in BALB/c mouse assessed as decrease in GPX4 expression at 20 mg/kg,ip administrated for 21 consecutive days by immunohistochemistry; format: functional, organism-based
MDA-MB-231 [28] = assay: Antitumor activity against human MDA-MB-231 cells xenografted in BALB/c mouse assessed as decrease in phosphorylated Rb expression at 20 mg/kg,ip administrated for 21 consecutive days by immunohistochemistry; format: functional, organism-based
MDA-MB-231 [29] = assay: Antitumor activity against human MDA-MB-231 cells xenografted in BALB/c mouse assessed as decrease in phosphorylated Rb expression at 40 mg/kg,ip administrated for 21 consecutive days by immunohistochemistry; format: functional, organism-based
MDA-MB-231 [30] = assay: cells; conditions: Homo sapiens, MDA-MB-231, 48 h
Description: Antiproliferative activity against human MDA-MB-231 cells assessed as inhibition of cell growth incubated for 48 hrs by CCK-8 assay

HCT-116 [31] = assay: cells; conditions: Homo sapiens, HCT-116, 48 h
Description: Antiproliferative activity against human HCT-116 cells assessed as inhibition of cell growth incubated for 48 hrs by CCK-8 assay

A549 = assay: cells; conditions: Homo sapiens, A549, 48 h
Description: Antiproliferative activity against human A549 cells assessed as inhibition of cell growth incubated for 48 hrs by CCK-8 assay

HepG2 = assay: cells; conditions: Homo sapiens, HepG2, 48 h
Description: Antiproliferative activity against human HepG2 cells assessed as inhibition of cell growth incubated for 48 hrs by CCK-8 assay

CDK6/cyclin D3, sequence (P30281 whole entry): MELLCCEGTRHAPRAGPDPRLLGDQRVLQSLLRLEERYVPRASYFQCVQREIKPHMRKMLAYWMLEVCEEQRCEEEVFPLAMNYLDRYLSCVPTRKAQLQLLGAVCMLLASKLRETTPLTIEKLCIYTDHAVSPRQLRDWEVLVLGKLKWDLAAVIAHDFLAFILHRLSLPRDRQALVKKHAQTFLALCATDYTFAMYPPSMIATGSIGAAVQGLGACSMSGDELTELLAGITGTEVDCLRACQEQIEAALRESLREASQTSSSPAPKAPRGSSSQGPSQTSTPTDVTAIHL
CDK6/cyclin D3, sequence (Q00534 whole entry): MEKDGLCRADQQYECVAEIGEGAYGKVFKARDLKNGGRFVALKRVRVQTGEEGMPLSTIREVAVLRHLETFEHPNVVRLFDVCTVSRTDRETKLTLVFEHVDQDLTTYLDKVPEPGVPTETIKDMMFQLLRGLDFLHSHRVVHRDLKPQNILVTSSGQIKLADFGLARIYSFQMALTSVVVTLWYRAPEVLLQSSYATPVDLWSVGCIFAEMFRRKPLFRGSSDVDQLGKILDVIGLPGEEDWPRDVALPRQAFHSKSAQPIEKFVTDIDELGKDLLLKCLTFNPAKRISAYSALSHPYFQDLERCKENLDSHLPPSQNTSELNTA
CDK4/Cyclin D3, sequence (P11802 whole entry): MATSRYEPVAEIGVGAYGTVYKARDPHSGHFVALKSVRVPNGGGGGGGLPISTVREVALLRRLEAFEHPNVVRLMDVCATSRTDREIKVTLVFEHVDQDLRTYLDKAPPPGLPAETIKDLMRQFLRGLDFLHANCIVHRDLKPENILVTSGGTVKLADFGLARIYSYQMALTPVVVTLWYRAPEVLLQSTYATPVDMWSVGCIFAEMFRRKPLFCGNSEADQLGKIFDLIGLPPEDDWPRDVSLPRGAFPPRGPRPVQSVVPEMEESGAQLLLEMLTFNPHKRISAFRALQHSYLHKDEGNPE
CDK4/Cyclin D3, sequence (P30281 whole entry, further chain): as the sequence (P30281 whole entry) above

**Q.** What does the source list for `COc1ccc2c(c1)NC(=O)/C2=C1\Nc2ccccc2\C1=N/OCCCNC(=O)CCn1cc(COc2ccc(N(C(=O)CCl)C(C(=O)NCCc3ccccc3)c3cccs3)cc2Cl)nn1` (stereo not given)?
**A.** inhibition [1]: 10.7%; Tmax [2]: 48 min; AUC(0-t) at 24 h [3]: 15.7 µg·h/mL; IC50 (CDK4/Cyclin D3): 0.191 µM; IC50 (CDK6/cyclin D3): 0.0681 µM; Activity (MDA-MB-231 [4]): Dose-Dependent Effect; Activity (MDA-MB-231 [5]): Active; Activity (HCT-116 [6]): Active; Activity (HCT-116 [7]): Active; Activity (MDA-MB-231 [8]): Dose-Dependent Effect; Activity (MDA-MB-231 [9]): Active; Activity (HCT-116 [10]): Active; Activity (HCT-116 [11]): Active; Activity (HCT-116 [12]): Active; Activity (HCT-116 [13]): Dose-Dependent Effect; Activity (MDA-MB-231 [14]): Active; Activity (MDA-MB-231 [15]): Active; Activity (HCT-116 [16]): Active; inhibition in vivo at 40 mg/kg (MDA-MB-231 [17]): 83.3%; inhibition in vivo at 20 mg/kg (MDA-MB-231 [18]): 67.8%; Activity [19]: Non-Toxic; Activity [20]: Non-Toxic; Activity [21]: Non-Toxic; Activity [22]: Non-Toxic; Activity [23]: Non-Toxic; Activity [24]: Non-Toxic; Activity [25]: Non-Toxic; Activity [26]: Non-Toxic; Activity (MDA-MB-231 [27]): Active; Activity (MDA-MB-231 [28]): Active; Activity (MDA-MB-231 [29]): Active; IC50 (MDA-MB-231 [30]): 0.8 µM; IC50 (HCT-116 [31]): 0.75 µM; IC50 (A549): 1.02 µM; IC50 (HepG2): 1.49 µM
